In patent publication US8389680B2, “Treatment of Aspergillus infections with alpha thymosin peptides” (SciClone Pharmaceuticals, Inc., priority 2003, dated 2013):

Key:
p38 and NF-kB = assay: Analysis of p38 and NF-kB activation on lung DCs; format: cell-based, murine
Protocol: P38 and NF-kB were activated on lung DCs by exposure for 20 minutes at 37° C. to Aspergillus conidia and/or 100 ng/ml TA1. Blots of cell lysates were incubated with rabbit polyclonal Abs recognizing either the unphosphorylated form of p38 MAPK, or the double-phosphorylated (Thr-180/Tyr-182) p38 MAPK, or Abs specific for the Rel A, 65 kDa DNA binding subunit of human NF-kB followed by horseradish peroxidase-conjugated goat anti-rabbit IgG, as per manufacturer's instructions. Blots were developed with an Enhanced Chemiluminescence detection kit. Bands were visualized after exposure of the blots to a Kodak RX film. To ensure similar protein loading in each lane, the phospho blots were stripped and the membranes were reprobed with Abs against p38 and NF-kB.

[1] = test system: human MDC and PDC subsets; assay: Activation of human MDC and PDC subsets: phagocytosis, phenotype, cytokine release; format: cell-based; conditions: in response to conidia
Protocol: Blood CD 11c^+ myeloid DCs (MDCs) were generated from CD 14^+ mononuclear cells by magnetic cell sorting and cultured for 5 days in Iscove's modified medium, containing 10% fetal bovine serum, 50 micromolar 2-mercaptoethanol, sodium pyruvate (1 mM), 2 mM L-glutamine, HEPES (10 mM), and 50 micrograms/ml gentamycin in the presence of 50 ng/ml rHuman GM-CSF and 200 U/ml rHuman IL-4. Immature MDCs were cultured for 24 hours with 1000 ng/ml trimeric human CD40 ligand-leucine-zipper fusion protein to obtain mature DCs. CD 123^+ plasmacytoid DCs (PDCs) were isolated using the BDCA-4 isolation kit. Purity of CD 123^+ cells was >96%. For mature PDCs, immature DCs were cultured with the trimeric human CD40 ligand as above and 10 ng/ml IL-3. […] The expression of HLA Class II, CD80 and CD86 was high in both immature and mature DCs. Murine lung CD 11c^+ DCs (between 5 to 7% positive for CD8alpha and between 30 to 35% positive for Gr-1) were isolated by magnetic cell sorting. For phagocytosis, DCs were pre-exposed to 100 ng/ml TA1 for 60 minutes and subsequently incubated at 37° C. with Aspergillus conidia for an additional 60 minutes. The percentage of internalization was calculated and photographs were taken. In assessing functional maturation and cytokine determination, purified DCs were resuspended in Iscove's medium (with no serum but with polymixin B, to avoid non-specific activation by serum components and endotoxin) and pulsed with 100 ng/ml TA1 for 24 hours either alone or together with TLR ligands or unopsonized Aspergillus conidia. Cell surface phenotype was assessed by reacting samples with FITC- or PE-conjugated rat anti-mouse antibodies. Unrelated hisotype matched antibodies were used as control. The levels of TNF-alpha, IL-10, IL-12 p70, IFN-alpha and IL-8 in culture supernatants were determined by Kit ELISAs. The detection limits (pg/ml) of the assays were <3 (human) and <32 (murine) for TNF-alpha, <12 (murine) and <5 (human) for IL-10, <16 (murine) and <3 (human) for IL-12 p70 and <25 (human) IL-8. For human IFN-alpha <3 ng/ml. For enumeration of cytokine-producing cells, an ELISPOT assay was used on purified CD4^+ T cells and DCs from lungs.

murine DCs = assay: RT-PCR of TLR expression on DCs; format: cell-based
Protocol: Synthesis and PCR of cDNA were performed with forward and reverse PCR primers and the cycles used for murine and human TLRs and HPRT. The synthesized PCR products were separated by electrophoresis on 2% agarose gel and visualized by ethidium bromide staining.

A. fumigatus = assay: BMT mice with invasive aspergillosis: survival, fungal growth in lungs (chitin assay), lung histology; format: in vivo; conditions: G-CSF 250 microgram/kg intravenously
Description: For infection with A. fumigatus, mice were intranasally injected for 3 consecutive days with a suspension of 2×10^7 conidia/20 microliter saline. For the quantification of fungal growth in the lungs, the chitin assay was used. The chitin content was expressed as micrograms of glucosamine per organ. The glucosamine content of lungs from uninfected mice was used as a negative control ranging between 0.80 and 2.25 microgram glucosamine/organ. For histological analysis, lungs were excised and immediately fixed in formalin. Sections (3 to 4 micron) of paraffin-embedded tissues were stained with the periodic acid-Schiff procedure. Thymosin alpha 1 (TA1) and the scrambled polypeptide are as purified sterile lyophilized acetylated polypeptides with endotoxin levels less than 0.03 pg/ml, by a standard limulus lysate assay. The sequences were as follows: Ac-[…]O (Thymosin alpha 1, SEQ ID NO.: 1) and Ac-[…]OH ([…]). Their lyophilized powders were reconstituted in sterile water.
The treatments were as follows; in BMT-mice, TA1, at different doses administered intraperitoneally, sthymosin alpha 1, 400 microgram/kg administered intraperitoneally or human recombinant G-CSF 250 microgram/kg administered intravenously, were given daily beginning the day of the BM infusion, in concomitance with the infection and continuing for an additional 3 days. Amphotericin B was given daily for 3 days in concomitance with the infection, at a dose of 4000 microgram/kg, administered intraperitoneally. This dose would cure IA in cyclophosphamide-treated mice. Cyclophosphamide, 150 mg/kg administered intraperitoneally, was given a day before the infection. In cyclophosphamide-treated mice, 400 microgram/kg TA1 was given intraperitoneally for 5 consecutive days beginning the day of the infection.
C57BL6 mice were exposed to a lethal dose of 9 Gy and infused with T cell-depleted donor cells from BALB/c mice.

[2] = combined exposure to conidia and peptide

Molecule: Oc1ccc(-c2nc(-c3ccncc3)c(-c3ccc(F)cc3)[nH]2)cc1 [SB202190]
- effect of inhibitor on the effect of TA1 on DCs (p38 and NF-kB; inhibitor given with TA1): ablate the effect of TA1 on DCs

Molecule: Ac-Ala-Lys-Ser-Asp-Val-Lys-Ala-Glu-Thr-Ser-Ser-Glu-Ile-Asp-Thr-Thr-Glu-Leu-Asp-Glu-Lys-Val-Glu-Val-Lys-Ala-Asn-Glu-OH (Ac-AKSDVKAETSSEIDTTELDEKVEVKANE-OH) [scrambled peptide]
- HLA Class II antigens and costimulatory molecule expression [1]: failed to up-regulate
- cytokine production by DCs [1]: failed
- expression of TLR2 (murine DCs; [2]): failed to activate
- expression of TLR9 (murine DCs; [2]): failed to activate
- expression of TLR2 (murine DCs; peptide alone): failed to activate
- expression of TLR9 (murine DCs; peptide alone): failed to activate
- p38 phosphorylation (p38 and NF-kB; peptide alone, 20 minutes): not stimulated
- p38 phosphorylation (p38 and NF-kB; scrambled peptide plus conidia): not stimulated

B1: G-CSF: human recombinant G-CSF, known to accelerate neutrophil recovery in mice (protein, UniProt P09919 31-207, looked up)
Granulocyte …: TPLGPASSLPQSFLLKCLEQVRKIQGDGAALQEKLVSECATYKLCHPEELVLLGHSLGIPWAPLSSCPSQALQLAGCLSQLHSGLFLYQGLLQALEGISPELGPTLDTLQLDVADFATTIWQQMEELGMAPALQPTQGAMPAFASAFQRRAGGVLVASHLQSFLEVSYRVLRHLAQP
- antifungal resistance by recovery from neutropenia alone, compared with TA1 (A. fumigatus): not sufficient
